# Data: US11472799B2, “Serine threonine kinase (AKT) degradation / disruption compounds and methods of use” (Icahn School of Medicine at Mount Sinai, priority 2018, dated 2022)
# “Also recorded” adds a separate entry of the source.
# Legend:
# [1] = test system: colon cancer xenograft with RAS/RAF activation albeit with PIK3CA mutation; conditions: alone; xenograft with RAS/RAF activation and PIK3CA mutation; cited from earlier work
# [2] = phase I clinical trial (Saura et al., 2017); cited from earlier work
# AKT [3] = assay: Western blot of AKT protein levels in U87MG cells; type: cell-based; conditions: 0.3 μM, 1 μM, 3 μM, or 10 μM for 24 h
# Protocol: (§1) Cells were lysed in 2× sample buffer (125 mM Tris-HCl at pH 6.8, 10% βME, 2% SDS, 20% glycerol, 0.05% Bromophenol Blue, 8 M urea). Protein lysates were loaded into 4-12% Bis-Tris gels and resolved by electrophoresis. Samples were then blotted on PVDF membrane (Millipore IPVH00010) using the wet transfer technique (Invitrogen). Membranes were blocked in 5% milk-TBST for 1 hour, washed in TBST for 10 min, and incubated in primary antibody in 5% milk-TBST or 5% BSA-TBST at 4° C. for 16 h. Membranes were rinsed (3×6 min) in TBST and incubated in horseradish peroxidase-conjugated secondary antibodies in 5% milk-TBST for 1 hour and rinsed again in TBST (3×6 min). Membranes were visualized using the chemiluminescence system (Thermo 34080, 37075) on autoradiography film (Denville E3018). Primary Antibodies: R-actin (Sigma A5316), p-AKT (Ser473 CST-9721), total AKT (CST-9272), p-S6 (Ser240/244, CST-5364), p-PRAS40 (Thr246, CST-2997). Secondary Antibodies: Mouse (Thermo 31432), Rabbit (Thermo 31460).
# PC-3 cells [4] = assay: Cell proliferation (IncuCyte live cell imaging) in PC-3 cells; type: cell-based, human; conditions: PC-3 cells (FIG. 7)
# Protocol: (§2) 1-3×10^3 PC-3 or MDA-MB-468 cells were seeded in 96-well plates in triplicates and treated at the indicated compound concentrations. Cells were monitored using the IncuCyte® live cell imaging system (Essen Bioscience™, Ann Arbor, Mich.) which was placed in a cell culture incubator operated at 37° C. and 5% CO2. Cell confluence was determined using calculations derived from phase-contrast images. The concentration for 50% of maximal inhibition of cell proliferation (GI50) values were determined by fitting to a standard four-parameter logistic using GraphPad Prism® v5.
# (§3) Experiments were carried out in 96-well plates in triplicates. A total of 1-3×10^3 cells per well were grown in the presence of 1 μM of AZD5363 (Selleckchem), 1 μM of selected degrader compounds. Cells were then monitored for 3-4 days using the IncuCyte live cell imaging system (Essen BioScience, Ann Arbor, Mich., USA), which was placed in a cell culture incubator operated at 37° C. and 5% CO2. Cell confluence was determined using calculations derived from phase-contrast images. For measurement of cell death DRAQ7 (Cell Signaling #7406) at 1.5 μM was included in the medium and apoptotic red counts were measured in IncuCyte™ FLR automated incubator microscope.
# AKT [5] = assay: Time course Western blot of AKT degradation in BT474 cells; type: cell-based, human
# Protocol: as §1
# PC-3 cells [6] = assay: Colony formation (Crystal Violet) in PC-3 cells; type: cell-based, human; conditions: 0.1-10 μM for 2 weeks (FIG. 8)
# Protocol: (§4) PC-3, MDA-MB-468, HCC1143, and MDA-MB-231 cells were treated with DMSO, AZD5363 or XF050-21 at 0.1 μM, 0.3 μM, 1 μM, 3 μM, or 10 μM for 2 weeks.
# (§5) Cells were cultured for 12-17 days in the presence of different compounds. Media with compound was replenished every two days. At the end of the experiment, media was aspirated and viable cells were stained with 0.5% crystal violet dye.
# AKT [7] = assay: Combination of AKT degrader and mTOR inhibitor, Western blot in BT474 cells; type: cell-based, human; conditions: 24 h, combined with an mTOR inhibitor (Torin1 or Rapamycin)
# Protocol: as §1
# AKT [8] = assay: Western blot of AKT protein levels and downstream signaling in BT474 cells; type: cell-based, human; conditions: Western blot (FIGS. 1, 3, 4)
# How it was run: (§6)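 Lysates were immunoblotted with chemiluminescent detection for p-AKT Ser473, total AKT, p-S6 Ser240/244 and p-PRAS40 Thr246, using actin as loading control.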
# MDA-MB-231 cells = assay: Colony formation (Crystal Violet) in MDA-MB-231 cells; type: cell-based; conditions: 0.1-10 μM for 2 weeks (FIG. 8)
# Protocol: as §4, §5
# [9] = Mouse PK study, plasma exposure; type: in vivo, Swiss Albino mice
# Protocol: Standard PK studies were conducted using male Swiss Albino mice. A single 75 mg/kg intraperitoneal (IP) injection of XF050-21 was evaluated. Plasma concentrations of XF050-21 reported at each of the six time points (30 min, 1 h, 2 h, 4 h, 8 h, and 12 h post dosing) are the average values from 3 test animals.
# HCC1143 cells = assay: Colony formation (Crystal Violet) in HCC1143 cells; type: cell-based; conditions: 0.1-10 μM for 2 weeks (FIG. 8)
# Protocol: as §4, §5
# AKT [10] = assay: Western blot of AKT protein levels in PC-3 cells; type: cell-based, human; conditions: 0.3 μM, 1 μM, 3 μM, or 10 μM for 24 h (FIG. 4B)
# How it was run: as §6
# AKT [11] = assay: Western blot of AKT protein levels in MDA-MB-468 cells; type: cell-based; conditions: 0.3 μM, 1 μM, 3 μM, or 10 μM for 24 h
# Protocol: as §1
# AKT [12] = assay: Time course Western blot of AKT degradation in PC-3 cells; type: cell-based, human; conditions: PC3 cells, 1 μM
# Protocol: BT474 cells and PC-3 cells were treated with DMSO or the indicated compounds at a fixed concentration of 1 μM for 1, 2, 4, 8, 12, or 24 h. […] The maximum degradation of AKT and inhibition of downstream signaling were observed after 12 h of treatment in PC-3 cells (FIG. 5B).
# as §1
# MDA-MB-468 cells [13] = assay: Colony formation (Crystal Violet) in MDA-MB-468 cells; type: cell-based; conditions: 0.1-10 μM for 2 weeks (FIG. 8)
# Protocol: as §4, §5
# AKT [14] = assay: Rescue of XF050-21 induced AKT degradation by pretreatment in BT474 cells; type: cell-based, human
# Protocol: BT474 Cells were pre-treated with DMSO, VHL-1 (1 mM), MLN4924 (1 μM), MG-132 (20 μM) or AZD5363 (1 μM) for 2 h, before being treated with the 1 μM XF050-21 compounds for 24 h.
# as §1
# MDA-MB-468 cells [15] = assay: Cell proliferation (IncuCyte live cell imaging) in MDA-MB-468 cells; type: cell-based; conditions: MDA-MB-468 cells (FIG. 7)
# Protocol: as §2, §3
Compound,efficacy in colon cancer xenograft [1],objective tumor shrinkage [2],AKT protein levels (AKT [3]),cell proliferation inhibition compared with AZD5363 (PC-3 cells [4]),time point for the most significant AKT degradation (AKT [5]; BT474 cells (FIGS. 2 and 5)) [h],"time-dependent reduction of AKT, p-AKT, P-PRAS40 (T246), and P-S6 (S240/244) protein levels (AKT [5]; BT474 cells, 1 μM)",colony formation inhibition compared with AZD5363 (PC-3 cells [6]),AKT protein levels and downstream signaling under combination treatment (AKT [7]),suppression of AKT protein level and AKT activity (AKT [8]),colony formation inhibition compared with AZD5363 (MDA-MB-231 cells),"clinical observations during PK study ([9]; male Swiss Albino mice, single 75 mg/kg IP)","bioavailability in mice ([9]; single 75 mg/kg IP injection, plasma)",colony formation inhibition compared with AZD5363 (HCC1143 cells),AKT protein levels (AKT [10]),AKT protein levels (AKT [11]),"time-dependent reduction of AKT, p-AKT, P-PRAS40 (T246), and P-S6 (S240/244) protein levels (AKT [12])",colony formation inhibition compared with AZD5363 (MDA-MB-468 cells [13]),mechanism of induced AKT protein degradation (AKT [14]),"rescue of AKT degradation by pretreatment (AKT [14]; 2 h pretreatment with VHL-1, MLN4924, MG-132 or AZD5363, then 1 μM XF050-21 for 24 h)",cell proliferation inhibition compared with AZD5363 (MDA-MB-468 cells [15])
CC(C)NC[C@@H](C(=O)N1CCN(c2ncnc3c2[C@H](C)C[C@H]3O)CC1)c1ccc(Cl)cc1 [GDC0068],not very effective,failed to result in significant objective tumor shrinkage,,,,,,,,,,,,,,,,,,
"Cc1ncsc1-c1ccc(CNC(=O)[C@@H]2C[C@@H](O)CN2C(=O)[C@@H](NC(=O)CCCCCCCCCC(=O)N2CCN(CC[C@H](NC(=O)C3(N)CCN(c4ncnc5[nH]ccc45)CC3)c3ccc(Cl)cc3)CC2)C(C)(C)C)cc1 [XF050-21, 4-amino-N-((S)-1-(4-chlorophenyl)-3-(4-(11-(((S)-1-((2S,4R)-4-hydroxy-2-((4-(4-methylthiazol-5-yl)benzyl)carbamoyl)pyrrolidin-1-yl)-3,3-dimethyl-1-oxobutan-2-yl)amino)-11-oxoundecanoyl)piperazin-1-yl)propyl)-1-(7H-pyrrolo[2,3-d]pyrimidin-4-yl)piperidine-4-carboxamide]",,,significantly reduced,more effective than AZD5363; also recorded: better cell proliferation inhibition activity than AZD5363,24,time-dependently reduce,more effective in inhibiting cancer cell proliferation than AZD5363; also recorded: better colony formation inhibition than AZD5363,reduced AKT protein levels and inhibited downstream signaling; also recorded: significantly reduced the AKT protein levels and AKT downstream signaling,effective in suppressing both AKT protein level and AKT activity,more effective in inhibiting cancer cell proliferation than AZD5363; also recorded: better colony formation inhibition than AZD5363,no abnormal clinical observations noted,Bioavailable,more effective in inhibiting cancer cell proliferation than AZD5363; also recorded: better colony formation inhibition than AZD5363,significantly reduced,significantly reduced,time-dependently reduces,more effective in inhibiting cancer cell proliferation than AZD5363; also recorded: better colony formation inhibition than AZD5363,mediated by hijacking the E3 ubiquitin ligase VHL,"can be rescued by VHL-1, MLN4924, MG-132 or AZD5363 pretreatment; also recorded: can be blocked by pretreatment of VHL-1, MLN4924, MG132, and AZD5363; also recorded: can be rescued by pretreatment of the cells with VHL-1, MLN4924, MG132 and AZD5363",more effective than AZD5363; also recorded: better cell proliferation inhibition activity than AZD5363
